Measurements from publication PMC5508670, “Conformationally restricted calpain inhibitors” (Chemical Science, 2015).
Read-outs that look alike come from different tables or passages of the source.

Legend:
calpain-I [1] = target: T1, calpain-I (Sus scrofa, UniProt P35750); assay: FRET-based calpain-I inhibition assay in the presence and absence of 10 mM DTT; format: biochemical, porcine
T1 construct: purchased CalBiochem
T1 sequence (P35750 1-714): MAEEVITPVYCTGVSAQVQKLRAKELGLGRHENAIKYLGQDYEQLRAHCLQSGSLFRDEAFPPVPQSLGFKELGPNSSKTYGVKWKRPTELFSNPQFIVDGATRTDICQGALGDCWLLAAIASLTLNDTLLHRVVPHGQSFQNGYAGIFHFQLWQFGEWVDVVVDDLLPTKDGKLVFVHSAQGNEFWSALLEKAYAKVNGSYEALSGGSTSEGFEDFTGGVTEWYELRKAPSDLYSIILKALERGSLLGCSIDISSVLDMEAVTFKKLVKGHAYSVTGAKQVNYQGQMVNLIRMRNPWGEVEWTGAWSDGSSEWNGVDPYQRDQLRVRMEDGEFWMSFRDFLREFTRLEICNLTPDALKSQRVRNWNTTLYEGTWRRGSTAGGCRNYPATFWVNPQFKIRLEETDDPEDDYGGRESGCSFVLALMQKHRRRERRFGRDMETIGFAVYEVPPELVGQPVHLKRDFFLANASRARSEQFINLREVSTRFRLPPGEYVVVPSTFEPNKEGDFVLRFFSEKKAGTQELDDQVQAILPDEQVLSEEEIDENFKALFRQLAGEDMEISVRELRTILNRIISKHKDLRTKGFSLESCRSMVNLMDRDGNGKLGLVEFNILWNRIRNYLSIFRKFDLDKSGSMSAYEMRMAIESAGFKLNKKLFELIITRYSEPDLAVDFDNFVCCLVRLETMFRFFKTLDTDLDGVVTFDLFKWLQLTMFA
T1 sequence (P04574 1-266): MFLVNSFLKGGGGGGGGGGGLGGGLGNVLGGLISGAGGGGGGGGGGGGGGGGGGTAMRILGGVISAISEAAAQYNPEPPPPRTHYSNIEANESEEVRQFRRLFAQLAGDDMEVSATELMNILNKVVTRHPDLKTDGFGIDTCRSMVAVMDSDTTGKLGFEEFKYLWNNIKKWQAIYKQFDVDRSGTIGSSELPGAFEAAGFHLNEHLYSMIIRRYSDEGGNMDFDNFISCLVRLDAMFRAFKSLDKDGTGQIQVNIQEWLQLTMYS
Procedure: The inhibitory properties of a series of oxidised and reduced α-mercaptoacrylic acid derivatives towards calpain-I (Fig. 4) were assessed in a FRET-based assay in the presence and absence of 10 mM dithiothreitol (DTT).[24],[25] To ensure complete oxidation, compounds were left in the assay solution for 3 hours prior to performing the assay (vide supra and ESI ^†). In the absence of inhibitors there was no observable difference in enzyme activity when assayed under both oxidising and reducing conditions.
Protein Expression, Crystallisation and FRET Based Inhibition Assay Methods […]
FRET based Inhibition Assay
This assay employed a peptide from the calpain-1 substrate α-spectrin, with fluorescein at one terminus internally quenched by DABCYL and the other (H2N-K(FAM)-EVYGMMK(DABCYL)-OH).11 Cleavage by calpain-1 occurs between the Tyr-Gly residues and results in enhanced fluorescence as the quenching effect is relieved. The assays were performed using purified porcine Calpain-1 (CalBiochem, 10 nM) and fluorogenic calpain-1 substrate (Merck, 1 µM) in an assay buffer consisting of HEPES (10 mM) pH 6.8; EDTA (0.5 mM); bovine serum albumin (0.1%). The assay was performed using a fluorescent plate reader (BMG Optistar) in an assay volume of 100 µl at a temperature of 37°C, using an excitation band pass filter centred at 485 nm and emission detected at 520 nm. The compounds to be tested for inhibition were added to the assay mixture before the reaction was initated by the addition of CaCl2 (5 mM).
None of the compounds had significant fluorescence at this wavelength and correction for this was unnecessary. The compounds were dissolved in DMSO at 50 mM and diluted into assay buffer to give range of concentrations from 5 nM to 50 µM. In each assay run, the effect of DMSO alone over the concentration used was also measured. Although there was no effect of DM SO at lower concentrations, in some assay runs, DM SO at 0.005%-0.5% produced some inhibitory effect. This DM SO effect (which was only relevant for compounds with poor inhibitory ability) was subtracted before constructing the inhibition curves.
FRET based inhibition assay (DTT addition)
The same procedure was used as described above except with assay buffer containing HEPES (10 mM) pH 6.8; EDTA (0.5 mM); bovine serum albumin (0.1%) and DTT (10 mM).

Calpain-II = target: Calpain-II; design: method as in PMID 8692879; conditions: cited from earlier work
Calpain-I [2] = target: Calpain-I; design: method as in PMID 8692879; conditions: cited from earlier work
[3] = Oxidation of sulfhydryl to disulfide in solution (UV-VIS / 1H-NMR); format: physicochemical
Procedure: The rate of conversion of 3 to its disulfide form was dependent upon both the concentration of the compound and the nature of the solution. […] […] Compound 4 was then added to preformed crystals of PEF(S).

[4] = thioethers, no DTT, read-out: IC50 (No DTT)
[5] = thioethers, DTT had no effect on the potency, read-out: IC50
[6] = absence of DTT (oxidised disulfide form), compounds left 3 hours in assay solution before the assay, read-out: IC50, Disulfide
[7] = thioethers, 10 mM DTT, read-out: IC50 (DTT)
[8] = presence of 10 mM DTT (reduced sulfhydryl form), read-out: IC50, Sulfhydryl
[9] = absence of DTT (disulfide form), read-out: IC50 of oxidised compounds

SMILES	IC50 (calpain-I [1]; [6]) [nM]	IC50 (calpain-I [1]; [8]) [nM]	also measured
O=C(O)/C(=C/c1cccc(Cl)c1)CS/C(=C\c1c[nH]c2ccc(Br)cc12)C(=O)O [compound 42, (Z)-3-(5-bromoindol-3-yl)-2-(((Z)-2-carboxy-3-(3-chlorophenyl)allyl)thio)acrylic acid]	–	–	IC50 (calpain-I [1]; [4]): 2000 nM; IC50 (calpain-I [1]; [5]): 1800 nM
O=C(O)/C(=C/c1c[nH]c2c(Cl)cccc12)SS/C(=C\c1c[nH]c2c(Cl)cccc12)C(=O)O [compound 37]	23	–	–
O=C(O)/C(=C/c1c[nH]c2cc(I)ccc12)SS/C(=C\c1c[nH]c2cc(I)ccc12)C(=O)O [compound 35]	10	–	–
O=C(O)/C(=C/c1ccc(Br)cc1)CS/C(=C\c1ccc(Br)cc1)C(=O)O [compound 40, (Z)-3-(4-Bromophenyl)-2-((((Z)-2-(4-bromophenyl)-1-carboxyvinyl)thio)methyl)acrylic acid]	–	–	IC50 (calpain-I [1]; [7]): 10000 nM; IC50 (calpain-I [1]; [4]): 10000 nM
O=C(O)/C(S)=C/c1c[nH]c2c(Cl)cccc12 [compound 36]	–	4000	–
O=C(O)/C(=C/c1c[nH]c2ccc(I)cc12)SS/C(=C\c1c[nH]c2ccc(I)cc12)C(=O)O [compound 29]	15	–	–
O=C(O)/C(=C/c1ccc(I)cc1)SS/C(=C\c1ccc(I)cc1)C(=O)O [compound 23]	–	–	IC50 (calpain-I [1]; [9]): 7.5 nM
O=C(O)/C(S)=C/c1cccc(F)c1 [compound 11]	–	50000	–
O=C(O)/C(=C/c1cccc(Cl)c1)CS/C(=C\c1ccc(Cl)cc1)C(=O)O [compound 41, (Z)-3-(3-chlorophenyl)-2-((((Z)-2-(4-chlorophenyl)-1-carboxyvinyl)thio)methyl)acrylic acid]	–	–	IC50 (calpain-I [1]; [7]): > 100000 nM; IC50 (calpain-I [1]; [4]): > 100000 nM; IC50 (calpain-I [1]; [5]): > 100000 nM
O=C(O)/C(S)=C/c1ccccc1F [compound 5]	–	50000	–
O=C(O)/C(S)=C/c1ccccc1Cl [compound 7]	–	60000	–
O=C(O)/C(=C/c1c[nH]c2ccc(Br)cc12)SS/C(=C\c1c[nH]c2ccc(Br)cc12)C(=O)O [compound 27]	10	–	–
O=C(O)/C(S)=C/c1ccccc1Br [compound 9]	–	50000	–
O=C(O)/C(S)=C/c1c[nH]c2ccc(I)cc12 [compound 28]	–	500	–
O=C(O)/C(=C/c1c[nH]c2cc(Br)ccc12)SS/C(=C\c1c[nH]c2cc(Br)ccc12)C(=O)O [compound 4, (2Z,2′Z)-2,2′-disulfanediylbis(3-(6-bromoindol-3-yl)acrylic acid)]	–	–	IC50 (calpain-I [1]; disulfide prepared by iodine mediated oxidation and in situ prior to the assay, read-out: IC50 (dose response curve, Figure S8)): 200 nM
O=C(O)/C(=C/c1c[nH]c2c(I)cccc12)SS/C(=C\c1c[nH]c2c(I)cccc12)C(=O)O [compound 39]	20	–	–
O=C(O)/C(=C/c1c[nH]c2cc(Cl)ccc12)SS/C(=C\c1c[nH]c2cc(Cl)ccc12)C(=O)O [compound 31]	28	–	–

SMILES	IC50 (calpain-I [1]; [6]) [nM]	IC50 (calpain-I [1]; [8]) [nM]	also measured
O=C(O)/C(S)=C/c1c[nH]c2c(I)cccc12 [compound 38]	–	2000	–
O=C(O)/C(=C/c1ccc(Br)cc1)CS/C(=C\c1c[nH]c2cc(Br)ccc12)C(=O)O [compound 43, (Z)-3-(6-bromoindol-3-yl)-2-(((Z)-3-(4-bromophenyl)-2-carboxyallyl)thio)acrylic acid]	–	–	IC50 (calpain-I [1]; [7]): 10000 nM; IC50 (calpain-I [1]; [4]): 10000 nM
O=C(O)/C(S)=C/c1c[nH]c2cc(Cl)ccc12 [compound 30]	–	1000	–
O=C(O)/C(S)=C/c1c[nH]c2ccc(Cl)cc12 [compound 24]	–	1500	–
O=C(O)/C(S)=C/c1ccc(F)cc1 [compound 18]	–	50000	–
O=C(O)/C(S)=C/c1ccc(I)cc1 [PD150606]	–	–	Ki (Calpain-II): 370 nM; Ki (Calpain-I [2]): 210 nM
O=C(O)/C(=C/c1ccccc1Br)SS/C(=C\c1ccccc1Br)C(=O)O [compound 10]	250	–	–
O=C(O)/C(S)=C/c1c[nH]c2ccc(Br)cc12 [compound 26]	–	500	–
O=C(O)/C(=C/c1ccc(Cl)cc1)SS/C(=C\c1ccc(Cl)cc1)C(=O)O [compound 21]	10	–	–
O=C(O)/C(S)=C/c1c[nH]c2ccc(F)cc12 [PD151746]	–	–	Ki (Calpain-II): 5330 nM; Ki (Calpain-I [2]): 260 nM
O=C(O)/C(S)=C/c1cccc(I)c1 [compound 16]	–	3000	–
O=C(O)/C(=C/c1ccc(F)cc1)SS/C(=C\c1ccc(F)cc1)C(=O)O [compound 19]	50	–	–
O=C(O)/C(S)=C/c1c[nH]c2cc(Br)ccc12 [compound 3, (Z)-3-(6-bromoindole-3-yl)-2-mercaptoacrylic acid]	–	500	time to complete conversion to oxidised (disulfide) form ([3]; 100 μM in 100 mM KiPO4, pH 7.0, room temperature, UV-VIS): 3 h; time after which oxidation was complete ([3]; 50 mM in DMSO, room temperature, 1H-NMR): 24 h
O=C(O)/C(=C/c1cccc(I)c1)SS/C(=C\c1cccc(I)c1)C(=O)O [compound 17]	–	–	IC50 (calpain-I [1]; [9]): 25 nM
O=C(O)/C(S)=C/c1c[nH]c2cc(I)ccc12 [compound 34]	–	500	–
O=C(O)/C(=C/c1ccccc1F)SS/C(=C\c1ccccc1F)C(=O)O [compound 6]	65	–	–
O=C(O)/C(=C/c1c[nH]c2ccc(Cl)cc12)SS/C(=C\c1c[nH]c2ccc(Cl)cc12)C(=O)O [compound 25]	18	–	–
